The source of these data is patent US20240277851A1, “siRNA DELIVERY VECTOR” (COUNCIL OF SCIENTIFIC & INDUSTRIAL RESEARCH, priority 2021, published 2024).

pIC50: −log10 of the molar value.

In general, pIC50 refers to the negative decadic logarithm of the IC50, by convention in mol/L.

One data set deals with siRNA. As to the kind of experiment: Agarose gel electrophoresis retardation assay (siRNA binding). The settings on record: earlier findings, FIG. 2D; ratios 1:1 to 7:1. Here is the method:
Gel electrophoresis was performed with agarose gel (1.5% w/v) in tris-acetate-EDTA buffer (40 mM) with one drop of ethidium bromide added (concentration of EtBr stock solution: 0.625 mg/ml in H2O), at 100 V for 30 min. The siRNA lipoplexes were prepared by complexing siRNA with Mito-Esc, Mito-isoscopoletin and octyl TPP cation at described P^+/P^− ratios. The samples were incubated for 30 min at room temperature prior to addition into a well. The siRNA bands were visualized under UV illumination at 365 nm.
Mito-Esc nanoparticle solutions were prepared at various concentrations according to the desired final P+:P− charge ratio. Twenty μL solution of the Mito-Esc/siRNA complex was prepared to maintain a constant amount of siRNA in each solution (1 μg in 10 μL), and varying the amount of Mito-Esc according to the P+:P− charge ratio. The prepared mixtures were gently vortexed for 5 min. and incubated for 30 min at room temperature for complex formation.
The efficiency of Mito-Esc to bind siRNA was checked by agarose gel electrophoresis. Also, in order to assess the importance of hydrogen bonding in forming the stable siRNA complexes, Mito-isoscopoletin was synthesized by protecting the dihydroxy group with methyl group. Octyl TPP cation was used as a negative control.

In another data set the test system is MDA-MB-231 cells. Put plainly: Intracellular delivery of Cy-5 siRNA by confocal imaging, MDA-MB-231. It counts as cell-based. The settings on record: MDA-MB-231, Cy-5 siRNA 40 nM, 24 h. Here is the method: (§1) FIG. 5: Detection of intracellular delivery of Cy-5 siRNA by Mito-Esc using confocal imaging. MDA-MB-231 cells were transfected with Cy-5 labelled siRNA (40 nM) with indicated delivery systems for 24 h. Transfection efficacy was evaluated using Confocal Microscopy. Cy-5 fluorescence in the cytosol is shown in blue color (Scale bar 10X). Briefly, MDA-MB-231 cells were seeded on a coverslip in 12-well plates at a density of 3×10^4 cells per well in 1 mL complete DMEM and cultured for 12 h. Fluorescent (Cy-5) siRNA was complexed either with lipofectamine-2000 (positive control) or with Mito-Esc (2.5 μM) or parent esculetin (2.5 μM) or with different cationic lipids in serum free DMEM medium for 30 min before addition into the plates. These lipoplexes were added to the cells and incubated for 6 h. After that, cells were washed twice with PBS and fixed with 4% paraformaldehyde for 15 min. Finally, slides were mounted and the cells were imaged using a confocal microscope. Florescent labeled siRNA with Mito-Esc lipoplexes were prepared as described above and incubated with MDA-MB-231 cells for 24 h. The cells were stained by DAPI to stain the nucleus. The cells were mounted and observed under confocal microscope (Olympus, Tokyo, Japan).

The test system of another data set is MnSOD. Put plainly: MnSOD gene silencing by immunoblotting. It counts as cell-based. The conditions noted are these: MDA-MB-231, siMnSOD 40 nM, 48 h. Here is the method: FIG. 4: Mito-Esc/siMnSOD complex by depleting MnSOD levels exacerbates Mito-Esc-induced breast cancer cell death. (A) MDA-MB-231 cells were incubated either with Mito-Esc/siMnSOD (40 nM) complex or with lipofectamine-2000/siMnSOD complex for 48 h and cell viability was measured by trypan blue dye exclusion assay. (B) MDA-MB-231 cells were transfected with siMnSOD (40 nM) with indicated delivery systems for 48 h and MnSOD protein levels were measured by immunoblotting. Parenthesis indicates the relative expression of MnSOD normalized to GAPDH (loading control).
At the end of the treatments, cell pellets were lysed in a RIPA buffer containing protease inhibitor cocktail, phosphatase inhibitor cocktail-2, 3. Proteins were resolved by SDS-PAGE and blotted onto a nitrocellulose membrane and blocked with 5% bovine serum albumin, washed, and incubated with primary antibodies (1:1000) over night at 4° C. The membranes were then washed and incubated for 1 h with anti-rabbit/mouse IgG horseradish peroxidase linked secondary antibodies (1:5000). ECL reagent (Amersham GE) was applied on the membrane prior to developing with a chemiluminescent system (Bio-Rad).
Cells were cultured in 12-well plates at a density of 3×10^4 cells per well (containing a glass coverslip the day before use). […]
(In western blotting, separated proteins are transferred to a membrane and probed.)

Data set [1] concerns MDA-MB-231 breast cancer cells. As to the kind of experiment: Trypan blue dye exclusion cell viability, MDA-MB-231. Format: cell-based. The settings on record: MDA-MB-231, 24 h and 48 h, FIG. 1A. Here is the method:
FIG. 1: Mito-Esc dose- and time-dependently induces breast cancer cell death without affecting normal cell viability. (A) MDA-MB-231 breast cancer cells were treated with various concentrations of Mito-Esc (1.25-7.5 μM). Cell viability was measured by trypan blue dye exclusion assay at 24 h and 48 h. (B) Same as A, except that cells were treated with parent Esc (5-50 μM). (C) Same as A, except that MCF10A (normal mammary epithelial) cells were treated with Mito-Esc (5-50 μM).
MDA-MB-231 (a Triple negative breast cancer cell line, ATCC) and MCF-10A cells (normal mammary epithelial cells, ATCC) were grown in Dulbecco's Modified Eagle's medium (DMEM) containing 10% FBS, 1% (v/v) Sodium Pyruvate (100 mM), Sodium bicarbonate (26 mM), L-glutamine (4 mM), penicillin (100 units/ml), and streptomycin (100 μg/ml). Cells were maintained in an incubator at 37° C. in a humidified atmosphere of 5% CO2 and 95% air.
To evaluate cytotoxicity of the Mito-Esc or Mito-Esc lipoplexes with siMnSOD, a trypan blue dye exclusion assay was used. Briefly, cells were seeded in a 12-well plate at a density of 3×10^4 cells per well and cultured overnight before transfection. […] The cell suspension (10 μl) was mixed with an equal amount of trypan blue and counted using an automated cell counter (Countess, Life Technologies). […]

Data set [2] relates to HeLa (cervical) cancer cells. As to the kind of experiment: Sulforhodamine B cytotoxicity, HeLa. Format: cell-based. The conditions noted are these: 24 h. The procedure: (§2) Cytotoxicity of Mito-Esc on different cancer cell lines HeLa (cervical), HepG2 (liver), MCF-7 (ER+ve breast), A549 (lung), DU-145 (prostate) cancer cells and MCF-10A (normal mammary epithelial cells) were determined by treating with Mito-Esc (0.5-100 μM) for 24 h and cell viability was measured by Sulforhodamine B assay.

The subject of data set [3] is HepG2 (liver) cancer cells. As to the kind of experiment: Sulforhodamine B cytotoxicity, HepG2. The settings on record: HepG2, 24 h. It counts as cell-based. The procedure: as §2
For data set [4], the system named is MCF-7 (ER+ve breast) cancer cells. As to the kind of experiment: Sulforhodamine B cytotoxicity, MCF-7. It counts as cell-based. The settings on record: MCF-7, 24 h. Here is the method: as §2
Another data set deals with A549 (lung) cancer cells. Put plainly: Sulforhodamine B cytotoxicity, A549. Format: cell-based. The settings on record: A549, 24 h. Here is the method:
as §2

Data set [5] concerns DU-145 (prostate) cancer cells. As to the kind of experiment: Sulforhodamine B cytotoxicity, DU-145. It counts as cell-based. The settings on record: DU-145, 24 h. Here is the method: as §2
Data set [6] deals with MCF-10A (normal mammary epithelial cells). Put plainly: Sulforhodamine B cytotoxicity, MCF-10A. It counts as cell-based. The settings on record: 24 h. The procedure: as §2
Data set [7] is described as follows: Size and surface charge of Mito-Esc nanoparticles (DLS, zeta potential). Format: physicochemical. The conditions noted are these: aqueous solution (1% EtOH). The procedure: The size (hydrodynamic diameter) and the surface charge (zeta potentials) of a Mito-Esc nanoparticle were measured by photon correlation spectroscopy and the electrophoretic mobility on a Zetasizer 3000HSA (Malvern, UK). The size was measured in deionized water with a sample refractive index of 1.33, a viscosity of 0.88 cP and a temperature of 25° C. The size was measured in triplicate. The zeta potential was measured using the following parameters: viscosity, 0.88 cP; dielectric constant, 78.5, and temperature, 25° C.
(§3) The self-assembling properties of Mito-Esc were explored. The particle size of an aqueous solution (1% EtOH) of Mito-Esc was measured using Dynamic light scattering (DLS). Mito-Esc formed nanosized particles of size 166±30 nm and surface charge of 33±0.4 mV (FIG. 2A). The size and morphology of self-assembled nanoparticles of Mito-Esc was investigated by scanning and by transmission electron microscopy respectively. Mito-Esc formed spherical shaped nanoparticles of <200 nm (FIGS. 2B & 2C).

Data set [8] can be described thus: Scanning and transmission electron microscopy of nanoparticles. It counts as physicochemical. The conditions noted are these: spherical shaped nanoparticles. The procedure: Transmission electron microscopy studies were performed on a Tecnai T12 microscope (FEI) at 120 kV, and images were taken using an SIS CCD camera; Samples were negatively stained with ammonium molybdate on 200 or 400 mesh carbon-coated copper grids (Ted Pella, Inc.). Before recording micrographs, the grids were air dried.
Field emission scanning electron microscopic (FESEM) analysis of a Mito-Esc nanoparticle was performed on a Carl Zeiss SIGMA HD field-emission scanning electron microscope.
as §3

The subject of another data set is MCF-10A cells. Put plainly: Intracellular delivery of Cy-5 siRNA by confocal imaging, MCF-10A. It counts as cell-based. The procedure: FIG. 6: Comparison of intracellular delivery of Cy-5 siRNA using confocal imaging. MCF-10A cells were transfected with Cy-5 labelled siRNA using different delivery mechanisms. Transfection efficacy was evaluated using Confocal Microscopy. Cy-5 fluorescence in the cytosol is shown in blue.
as §1, with “Briefly,” for “FIG. 5: Detection of intracellular delivery of Cy-5 siRNA by Mito-Esc using confocal imaging. MDA-MB-231 cells were transfected with Cy-5 labelled siRNA (40 nM) with indicated delivery systems for 24 h. Transfection efficacy was evaluated using Confocal Microscopy. Cy-5 fluorescence in the cytosol is shown in blue color (Scale bar 10X). Briefly,”

Data set [9] deals with MDA-MB-231 cells in mammary fat pad. As to the kind of experiment: In-vivo orthotopic MDA-MB-231 tumor model. The settings on record: SCID mice, i.p. 3 and 6 mg/kg for two weeks. Here is the method:
Inoculation of MDA-MB-231 cells into mammary fat pad of SCID mice: 6-week-old female SCID mice were used for the experiment. Initially, 10 nM Qtracker labeling solution (Qtracker Cell Labeling Kit, Invitrogen Q25071MP) was prepared by pre-mixing 10 μL each of Component A and Component B in a 1.5 mL microcentrifuge tube and incubated for 5 minutes at room temperature. This mixture was added to 0.2 mL of fresh complete growth medium and vortexed for 30 seconds and added to a 75-cm2 tissue culture flask containing MDA-MB-231 cells and incubated in a 37° C., 5% CO2 incubator overnight. Sub-confluent labeled cells were harvested and counted.
Cells (1×10^6) were suspended in 0.1 ml of serum free medium. To this 0.1 ml of matrigel was added and gently mixed to get a uniform cell suspension. The SCID mice were anesthetized with ketamine/xylazine cocktail (50 μL/20 g mice) and each mouse was implanted with above mentioned 1×10^6 Q-Tracker labelled MDA-MB-231 cells into the 4th pair of mammary fat pad orthotopically and sutured the fat pad after the inoculation of cells. The incision site was dressed with povidone-iodine to prevent infection every day until the incision healed. Mice were checked to see development of tumors and treatment began once the tumors reached a volume of ≥300 mm^3. […] On the day of sacrifice, tumor volumes were measured using Vernier calipers. […]

Consider “(8-(6,7-dimethoxy-2-oxo-2H-chromen-4-yl)octyl)triphenylphosphonium [Mito-isoscopoletin]”, for which the “P+/P− charge ratios at which siRNA is bound (migration retarded)” value with siRNA was “did not bind the siRNA”. Further, in the data set on MDA-MB-231 cells, the “intracellular delivery of Cy-5 siRNA” value is reported as “failed to deliver the Cy-5 siRNA intracellularly”.
For the compound `O=c1ccc2cc(O)c(O)cc2o1` [parent esculetin, esculetin], the MnSOD protein levels entry in the data set with MnSOD is reported as “neither parent esculetin nor octyl TPP cation complexes were able to decrease MnSOD expression”. In the data set on MDA-MB-231 cells, the “intracellular delivery of Cy-5 siRNA” value is listed as “failed to deliver the Cy-5 siRNA intracellularly”.
As for `O=c1cc(CCCCCCCC[P+](c2ccccc2)(c2ccccc2)c2ccccc2)c2cc(O)c(O)cc2o1` [Mito-Esc, (8-(6,7-dihydroxy-2-oxo-2H-chromen-4-yl)octyl) triphenylphosphonium], the “concentrations causing dose-dependent cell death” value in data set [1] was in the range of 1.5 to 7.5 µM. Moreover, the pIC50 was 5.31 in [2]; 5.00 in data set [3]; 5.32 in [4]; 5.74 in the data set on A549 (lung) cancer cells; 4.81 in data set [5]; less than 4.00 in data set [6]. The “particle size (DLS)” value in data set [7] stood at 166±30 nm. In addition, the surface charge in data set [7] is on record as 33±0.4 mV. The “nanoparticle size by SEM/TEM” value in data set [8] is less than 200 nm. Also, in the data set with MDA-MB-231 cells, the “intracellular delivery of Cy-5 siRNA” value is listed as “significantly caused the intracellular delivery of Cy-5 siRNA”. Besides, the “efficiency of siRNA delivery” value with MCF-10A cells is given as “lower than Lipofectamine-2000”. Moreover, the “breast cancer progression (tumor volume, weight)” value in [9] is reported as “regress breast cancer progression”.
